According to patent US11142515B2, “Pyrazolyl-ureas as kinase inhibitors” (RESPIVERT LIMITED, priority 2014, dated 2021):

Biological target: T1, p38MAPKγ (MAPK12) (Homo sapiens, UniProt P53778)
T1 construct: purchased Life Technologies
T1 sequence (P53778 1-367): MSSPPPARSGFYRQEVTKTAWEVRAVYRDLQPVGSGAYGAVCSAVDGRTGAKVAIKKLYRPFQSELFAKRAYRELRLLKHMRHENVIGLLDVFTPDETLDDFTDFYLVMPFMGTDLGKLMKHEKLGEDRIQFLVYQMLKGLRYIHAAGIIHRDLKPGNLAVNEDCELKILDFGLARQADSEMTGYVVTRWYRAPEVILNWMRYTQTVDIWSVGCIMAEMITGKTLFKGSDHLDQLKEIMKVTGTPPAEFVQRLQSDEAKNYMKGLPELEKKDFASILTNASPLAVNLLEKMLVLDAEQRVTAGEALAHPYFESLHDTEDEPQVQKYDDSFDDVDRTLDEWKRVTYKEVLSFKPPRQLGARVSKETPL
Test: p38 MAPKγ enzyme inhibition (Z-LYTE FRET)
Type: biochemical
Details: Table 2B, unit inferred; read-out: p38 MAPKγ (Enzyme Profile)
Procedure: The enzyme inhibitory activities of compounds disclosed herein were determined by FRET using synthetic peptides labelled with both donor and acceptor fluorophores (Z-LYTE, Life Technologies, Paisley, UK).
The inhibitory activities of compounds of the invention against p38MAPKγ (MAPK12: Life Technologies), were evaluated by determining the level of activation/phosphorylation of the target peptide. The enzyme (800 ng/mL, 2.5 μL) was incubated with the test compound (2.5 μL at either 40 μg/mL, 12 μg/mL, 4 μg/mL, 1.2 μg/mL, 0.4 μg/mL, 0.12 μg/mL, 0.04 μg/mL, 0.012 μg/mL, 0.004 μg/mL or 0.0012 μg/mL) for 2 h at RT. The FRET peptides (8 μM, 2.5 μL), and appropriate ATP solution (2.5 μL, 400 μM) were then added to the enzymes/compound mixtures and incubated for 1 h at RT. Development reagent (protease, 5 μL) was added for 1 h prior to detection in a fluorescence microplate reader (EnVision, Perkin Elmer).
In all cases, the site-specific protease cleaves non-phosphorylated peptide only and eliminates the FRET signal. Phosphorylation levels of each reaction were calculated using the ratio of coumarin emission (donor) over fluorescein emission (acceptor), for which low ratios indicate high phosphorylation and high ratios indicate low phosphorylation levels.

Structure (SMILES) | IC50 [nM]
Cc1ccc(-n2nc(C(C)(C)C)cc2NC(=O)Nc2ccc(OCc3ccnc(Nc4cnc(C(=O)NCCN5CCC[C@H](F)C5)cn4)c3)c3ccccc23)cc1 [Example 101] | 374
COC1CCN(CCNC(=O)c2cnc(Nc3cc(COc4ccc(NC(=O)Nc5cc(C(C)(C)C)nn5-c5ccc(C)cc5)c5ccccc45)ccn3)cn2)CC1 [Example 92] | 117
COC(=O)N1CCN(CCNC(=O)c2cnc(Nc3cc(COc4ccc(NC(=O)Nc5cc(C(C)(C)C)nn5-c5ccc(C)cc5)c5ccccc45)ccn3)cn2)CC1 [Example 91] | 176
CO[C@H]1CCCN(CCNC(=O)c2cnc(Nc3cc(COc4ccc(NC(=O)Nc5cc(C(C)(C)C)nn5-c5ccc(C)cc5)c5ccccc45)ccn3)cn2)C1 [Example 54, (S)-5-((4-(((4-(3-(3-(tert-butyl)-1-(p-tolyl)-1H-pyrazol-5-yl)ureido)naphthalen-1-yl)oxy)methyl)pyridin-2-yl)amino)-N-(2-(3-methoxypiperidin-1-yl)ethyl)pyrazine-2-carboxamide] | 150
Cc1ccc(-n2nc(C(C)(C)C)cc2NC(=O)Nc2ccc(OCc3ccnc(Nc4cnc(C(=O)N[C@@H](C)CN5CCOCC5)cn4)c3)c3ccccc23)cc1 [Example 278, (S)-5-((4-(((4-(3-(3-(tert-butyl)-1-(p-tolyl)-1H-pyrazol-5-yl)ureido)naphthalen-1-yl)oxy)methyl)pyridin-2-yl)amino)-N-(1-morpholinopropan-2-yl) pyrazine-2-carboxamide] | 197
Cc1ccc(-n2nc(C(C)(C)C)cc2NC(=O)Nc2ccc(OCc3ccnc(Nc4cnc(C(=O)NCC(C)(C)N5CCOCC5)cn4)c3)c3ccccc23)cc1 [Example 281, 5-((4-(((4-(3-(3-(tert-butyl)-1-(p-tolyl)-1H-pyrazol-5-yl)ureido)naphthalen-1-yl)oxy)methyl)pyridin-2-yl)amino)-N-(2-methyl-2-morpholinopropyl)pyrazine-2-carboxamide] | 289
CC(C)(C)c1cc(NC(=O)Nc2ccc(OCc3ccnc(Nc4cnc(CO)cn4)c3)c3ccccc23)n(-c2cccc(Cl)c2)n1 [Example 256, 1-(3-(tert-butyl)-1-(3-chloro-phenyl)-1H-pyrazol-5-yl)-3-(4-((2-((5-(hydroxymethyl)pyrazin-2-yl)amino)pyridin-4-yl)methoxy)naphthalen-1-yl)urea] | > 15400
Cc1ccc(-n2nc(C(C)(C)C)cc2NC(=O)Nc2ccc(OCc3ccnc(Nc4cnc(C(=O)NCc5nccn5C)cn4)c3)c3ccccc23)cc1 [Example 288, 5-((4-(((4-(3-(3-(tert-butyl)-1-(p-tolyl)-1H-pyrazol-5-yl)ureido)naphthalen-1-yl)oxy)methyl)pyridin-2-yl)amino)-N-((1-methyl-1H-imidazol-2-yl)methyl)pyrazine-2-carboxamide] | > 13600
Cc1ccc(-n2nc(C(C)(C)C)cc2NC(=O)Nc2ccc(OCc3ccnc(Nc4cnc(C(=O)NCCN5CCC(F)CC5)cn4)c3)c3ccccc23)cc1 [Example 96] | 269
Cc1ccc(-n2nc(C(C)(C)C)cc2NC(=O)Nc2ccc(OCc3ccnc(Nc4cnc(C(=O)NCCN5CC[C@@H](F)C5)cn4)c3)c3ccccc23)cc1 [Example 100] | 202
CCc1cncc(Nc2cc(COc3ccc(NC(=O)Nc4cc(C(C)(C)C)nn4-c4cc(C)cc(F)c4)c4ccccc34)ccn2)n1 [Example 254, 1-(3-(tert-butyl)-1-(3-fluoro-5-methylphenyl)-1H-pyrazol-5-yl)-3-(4-((2-((6-ethyl-pyrazin-2-yl)amino)pyridin-4-yl)methoxy)naphthalen-1-yl)urea] | 1930
Cc1ccc(-n2nc(C(C)(C)C)cc2NC(=O)Nc2ccc(OCc3ccnc(Nc4cnc(C(=O)NC(C)(C)CN5CCOCC5)cn4)c3)c3ccccc23)cc1 [Example 287, 5-((4-(((4-(3-(3-(tert-butyl)-1-(p-tolyl)-1H-pyrazol-5-yl)ureido)naphthalen-1-yl)oxy)methyl)pyridin-2-yl)amino)-N-(2-methyl-1-morpholinopropan-2-yl) pyrazine-2-carboxamide] | > 12800

Now those with a lower IC50, led by results:

IC50 [nM] | Structure (SMILES)
72 | Cc1ccc(-n2nc(C(C)(C)C)cc2NC(=O)Nc2ccc(OCc3ccnc(Nc4cnc(C(=O)NC5CCN(CCO)CC5)cn4)c3)c3ccccc23)cc1 [Example 103]
19 | Cc1ccc(-n2nc(C(C)(C)C)cc2NC(=O)Nc2ccc(OCc3ccnc(Nc4cnc(C(=O)NCCN5CCCC5)cn4)c3)c3ccccc23)cc1 [Example 86]
62 | COCCN1CCC(NC(=O)c2cnc(Nc3cc(COc4ccc(NC(=O)Nc5cc(C(C)(C)C)nn5-c5ccc(C)cc5)c5ccccc45)ccn3)cn2)CC1 [Example 282, 5-((4-(((4-(3-(3-(tert-butyl)-1-(p-tolyl)-1H-pyrazol-5-yl)ureido)naphthalen-1-yl)oxy)methyl)pyridin-2-yl)amino)-N-(1-(2-methoxy-ethyl)piperidin-4-yl) pyrazine-2-carboxamide]
4 | Cc1ccc(-n2nc(C(C)(C)C)cc2NC(=O)Nc2ccc(OCc3ccnc(Nc4cnc(C(=O)N5CCC(N(C)C)CC5)cn4)c3)c3ccccc23)cc1 [Example 272]
11 | COCc1cccc(-n2nc(C(C)(C)C)cc2NC(=O)Nc2ccc(OCc3ccnc(Nc4cnc(C(=O)NCC5CCN(C)CC5)cn4)c3)c3ccccc23)c1 [Example 99]
108 | CCN1CCN(C(=O)c2cnc(Nc3cc(COc4ccc(NC(=O)Nc5cc(C(C)(C)C)nn5-c5ccc(C)cc5)c5ccccc45)ccn3)cn2)CC1 [Example 271, 1-(3-(tert-butyl)-1-(p-tolyl)-1H-pyrazol-5-yl)-3-(4-((2-((5-(4-ethylpiperazine-1-carbonyl)pyrazin-2-yl)amino)pyridin-4-yl)methoxy)naphthalen-1-yl)urea]
103 | Cc1ccc(-n2nc(C(C)(C)C)cc2NC(=O)Nc2ccc(OCc3ccnc(Nc4cnc(C(=O)N[C@H]5COC[C@@H]5N5CCOCC5)cn4)c3)c3ccccc23)cc1 [Example 93]
83 | Cc1ccc(-n2nc(C(C)(C)C)cc2NC(=O)Nc2ccc(OCc3ccnc(Nc4cncc(CN5CCOCC5)n4)c3)c3ccccc23)cc1 [Example 285, 1-(3-(tert-butyl)-1-(p-tolyl)-1H-pyrazol-5-yl)-3-(4-((2-((6-(morpholinomethyl)pyrazin-2-yl)amino)pyridin-4-yl)methoxy)naphthalen-1-yl)urea]
16 | Cc1ccc(-n2nc(C(C)(C)C)cc2NC(=O)Nc2ccc(OCc3ccnc(Nc4cnc(C(=O)NCC5CCN(C)CC5)cn4)c3)c3ccccc23)cc1 [Example 81]
55 | Cc1ccc(-n2nc(C(C)(C)C)cc2NC(=O)Nc2ccc(OCc3ccnc(Nc4cnc(C(=O)NCCN5CCC[C@@H](O)C5)cn4)c3)c3ccccc23)cc1 [Example 95]
83 | Cc1ccc(-n2nc(C(C)(C)C)cc2NC(=O)Nc2ccc(OCc3ccnc(Nc4cnc(C(=O)NCCn5ccnc5C)cn4)c3)c3ccccc23)cc1 [Example 90]
106 | CSc1cccc(-n2nc(C(C)(C)C)cc2NC(=O)Nc2ccc(OCc3ccnc(Nc4cnccn4)c3)c3ccccc23)c1 [Example 77]
4.7 | Cc1ccc(-n2nc(C(C)(C)C)cc2NC(=O)Nc2ccc(OCc3ccnc(Nc4cnc(C(=O)N5CCN(CCN(C)C)CC5)cn4)c3)c3ccccc23)cc1 [Example 273, 1-(3-(tert-butyl)-1-(p-tolyl)-1H-pyrazol-5-yl)-3-(4-((2-((5-(4-(2-(dimethylamino)ethyl)piperazine-1-carbonyl)pyrazin-2-yl)amino)pyridin-4-yl)methoxy)naphthalen-1-yl)urea]
31 | Cc1ccc(-n2nc(C(C)(C)C)cc2NC(=O)Nc2ccc(OCc3ccnc(Nc4cnc(C(=O)NCCCN5CCN(C)CC5)cn4)c3)c3ccccc23)cc1 [Example 280, 5-((4-(((4-(3-(3-(tert-butyl)-1-(p-tolyl)-1H-pyrazol-5-yl)ureido)naphthalen-1-yl)oxy)methyl)pyridin-2-yl)amino)-N-(3-(4-methyl-piperazin-1-yl)propyl) pyrazine-2-carboxamide]
67 | Cc1ccc(-n2nc(C(C)(C)C)cc2NC(=O)Nc2ccc(OCc3ccnc(Nc4cnc(C(=O)NCCN5CCC(O)CC5)cn4)c3)c3ccccc23)cc1 [Example 84]
31 | Cc1ccc(-n2nc(C(C)(C)C)cc2NC(=O)Nc2ccc(OCc3ccnc(Nc4cnc(CN5CCN(C)CC5)cn4)c3)c3ccccc23)cc1 [Example 277, 1-(3-(tert-butyl)-1-(p-tolyl)-1H-pyrazol-5-yl)-3-(4-((2-((5-((4-methylpiperazin-1-yl)methyl)pyrazin-2-yl)amino)pyridin-4-yl)methoxy)naphthalen-1-yl)urea]
35 | CCN1CCN(C(=O)c2cnc(Nc3cc(COc4ccc(NC(=O)Nc5cc(C(C)(C)C)nn5-c5cccc(COC)c5)c5ccccc45)ccn3)cn2)CC1 [Example 283, 1-(3-(tert-butyl)-1-(3-(methoxymethyl)phenyl)-1H-pyrazol-5-yl)-3-(4-((2-((5-(4-ethylpiperazine-1-carbonyl)pyrazin-2-yl)amino)pyridin-4-yl)methoxy)naphthalen-1-yl)urea]
